pKd: −log10 of the molar value. *1 amine or outer side, *2 acyl side, *3 side chain or, on linkers, in order; H or OH if unused. Where a SMILES comes first, the peptide text is derived from it. Bridges are numbered along the chain shown (N, C = ends). [ ]: non-standard residue; d: D form. Trp(5-OH) = N[C@@H](Cc1c[nH]c2ccc(O)cc12)C(=O)O; Trp(7-aza) = N[C@@H](Cc1c[nH]c2ncccc12)C(=O)O; Trp(1-Me) = Cn1cc(C[C@H](N)C(=O)O)c2ccccc21; 1Nal = N[C@@H](Cc1cccc2ccccc12)C(=O)O; 2Nal = N[C@@H](Cc1ccc2ccccc2c1)C(=O)O; CH2 = C([*:1])[*:2]

For this assay, the target named is T1, DLL3 (Homo sapiens, UniProt Q9NYJ7).
T1 sequence (Q9NYJ7 27-618): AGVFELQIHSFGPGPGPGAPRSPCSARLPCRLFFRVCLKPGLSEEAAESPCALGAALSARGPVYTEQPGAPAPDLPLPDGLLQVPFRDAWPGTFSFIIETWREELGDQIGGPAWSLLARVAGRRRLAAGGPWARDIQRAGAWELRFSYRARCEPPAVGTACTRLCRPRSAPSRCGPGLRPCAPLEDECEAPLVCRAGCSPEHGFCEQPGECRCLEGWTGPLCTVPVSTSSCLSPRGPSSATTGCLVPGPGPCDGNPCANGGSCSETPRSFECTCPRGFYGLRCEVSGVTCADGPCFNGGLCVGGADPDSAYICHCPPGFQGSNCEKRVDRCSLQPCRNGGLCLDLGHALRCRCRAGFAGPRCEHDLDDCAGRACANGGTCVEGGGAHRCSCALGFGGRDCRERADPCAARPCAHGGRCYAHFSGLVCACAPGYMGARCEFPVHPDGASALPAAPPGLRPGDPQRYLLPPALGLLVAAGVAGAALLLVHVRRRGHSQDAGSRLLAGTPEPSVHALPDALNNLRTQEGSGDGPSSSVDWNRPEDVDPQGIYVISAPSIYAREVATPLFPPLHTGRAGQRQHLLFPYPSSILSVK
The experiment in a line: SPR KD, biotinylated human DLL3 on streptavidin chip (Table 8). Further details: biotin (biotinylated). As to conditions: biotinylated human DLL3 on streptavidin sensor chip, 25° C., 1:1 binding model; read-out: SPR KD. From the text: Biotinylated target ligand human DLL3 was immobilized on a streptavidin sensor chip. A reference surface was set up for nonspecific binding and refractive index changes. […] Sensorgram curves were fitted with 1:1 binding model, and affinity and kinetic parameters were obtained using Biacore Insight evaluation 4.0. software.

For `CSCC[C@H](NC(C)=O)C(=O)N[C@@H](Cc1c[nH]c2ccccc12)C(=O)N[C@H](C(=O)N[C@@H](C)C(=O)N[C@H]1CSSC[C@@H](C(=O)N[C@@H](Cc2c[nH]c3ccccc23)C(=O)N2CCC[C@H]2C(N)=O)NC(=O)[C@H](CC(=O)O)NC(=O)[C@H](Cc2c[nH]cn2)NC(=O)[C@H](Cc2c[nH]c3ccccc23)NC(=O)[C@H](CC(N)=O)NC(=O)[C@H](CC(N)=O)NC1=O)[C@@H](C)O` [compound 14, Ac-M-W-T-(L-Ala)-C(3)-N-N-W-H-D-C(3)-W-P-CONH2] (Ac-MWTACNNWHDCWP-NH2; disulfide 5-11), the negative-log Kd (pKd) was 7.00 to 8.00. Then `CC[C@H](C)[C@H](NC(=O)[C@@H](NC(=O)[C@H](Cc1c[nH]c2ccccc12)NC(=O)[C@H](CCSC)NC(C)=O)[C@@H](C)O)C(=O)N[C@H]1CSSC[C@@H](C(=O)N[C@@H](Cc2c[nH]c3ccccc23)C(=O)N2CCC[C@H]2C(N)=O)NC(=O)[C@H](CC(=O)O)NC(=O)[C@H](Cc2cnc[nH]2)NC(=O)[C@H](Cc2c[nH]c3ccccc23)NC(=O)[C@H](CC(N)=O)NC(=O)[C@H](C)NC1=O` [compound 15, Ac-M-W-T-I-C(3)-(L-Ala)-N-W-H-D-C(3)-W-P-CONH2] (Ac-MWTICANWHDCWP-NH2; disulfide 5-11), with 8.00 to 9.00; and `CC[C@H](C)[C@H](NC(=O)[C@@H](NC(=O)[C@H](Cc1c[nH]c2ncccc12)NC(C)=O)[C@@H](C)O)C(=O)N[C@H]1CSSC[C@@H](C(=O)N[C@@H](Cc2c[nH]c3ccccc23)C(=O)N2CCC[C@H]2C(N)=O)NC(=O)[C@H](CC(=O)O)NC(=O)[C@H](Cc2cnc[nH]2)NC(=O)[C@H](Cc2c[nH]c3ccccc23)NC(=O)[C@H](CC(N)=O)NC(=O)[C@H](CC(N)=O)NC1=O` [compound 24, Ac-(7Aza-W)-T-I-C(3)-N-N-W-H-D-C(3)-W-P-CONH2] (Ac-[Trp(7-aza)]TICNNWHDCWP-NH2; disulfide 4-10), with 7.00 to 8.00; and `CC[C@H](C)[C@H](NC(=O)[C@@H](NC(=O)[C@H](Cc1cccc2ccccc12)NC(C)=O)[C@@H](C)O)C(=O)N[C@H]1CSSC[C@@H](C(=O)N[C@@H](Cc2c[nH]c3ccccc23)C(=O)N2CCC[C@H]2C(N)=O)NC(=O)[C@H](CC(=O)O)NC(=O)[C@H](Cc2cnc[nH]2)NC(=O)[C@H](Cc2c[nH]c3ccccc23)NC(=O)[C@H](CC(N)=O)NC(=O)[C@H](CC(N)=O)NC1=O` [compound 25, Ac-(1Nal)-T-I-C(3)-N-N-W-H-D-C(3)-W-P-CONH2] (Ac-[1Nal]TICNNWHDCWP-NH2; disulfide 4-10), with 7.00 to 8.00. Turning to `CC[C@H](C)[C@H](NC(=O)[C@@H](NC(=O)[C@H](Cc1ccc2ccccc2c1)NC(C)=O)[C@@H](C)O)C(=O)N[C@H]1CSSC[C@@H](C(=O)N[C@@H](Cc2c[nH]c3ccccc23)C(=O)N2CCC[C@H]2C(N)=O)NC(=O)[C@H](CC(=O)O)NC(=O)[C@H](Cc2cnc[nH]2)NC(=O)[C@H](Cc2c[nH]c3ccccc23)NC(=O)[C@H](CC(N)=O)NC(=O)[C@H](CC(N)=O)NC1=O` [compound 26, Ac-(2Nal)-T-I-C(3)-N-N-W-H-D-C(3)-W-P-CONH2] (Ac-[2Nal]TICNNWHDCWP-NH2; disulfide 4-10), the pKd was 7.00 to 8.00. Then `CC[C@H](C)[C@H](NC(=O)[C@@H](NC(=O)[C@H](Cc1c[nH]c2ccc(O)cc12)NC(C)=O)[C@@H](C)O)C(=O)N[C@H]1CSSC[C@@H](C(=O)N[C@@H](Cc2c[nH]c3ccccc23)C(=O)N2CCC[C@H]2C(N)=O)NC(=O)[C@H](CC(=O)O)NC(=O)[C@H](Cc2c[nH]cn2)NC(=O)[C@H](Cc2c[nH]c3ccccc23)NC(=O)[C@H](CC(N)=O)NC(=O)[C@H](CC(N)=O)NC1=O` [compound 27, Ac-(5OH-W)-T-I-C(3)-N-N-W-H-D-C(3)-W-P-CONH2] (Ac-[Trp(5-OH)]TICNNWHDCWP-NH2; disulfide 4-10), with 7.00 to 8.00; and `CC[C@H](C)[C@H](NC(=O)[C@@H](NC(=O)[C@H](Cc1c[nH]c2ccccc12)NC(=O)[C@H](CCSC)NC(C)=O)[C@@H](C)O)C(=O)N[C@H]1CSCSC[C@@H](C(=O)N[C@@H](Cc2c[nH]c3ccccc23)C(=O)N2CCC[C@H]2C(N)=O)NC(=O)[C@H](CC(=O)O)NC(=O)[C@H](Cc2cnc[nH]2)NC(=O)[C@H](Cc2c[nH]c3ccccc23)NC(=O)[C@H](CC(N)=O)NC(=O)[C@H](CC(N)=O)NC1=O` [compound 32, Ac-M-W-T-I-C(1)-N-N-W-H-D-C(1)-W-P-CONH2] (Ac-MWTICNNWHDCWP-NH2; linker 5-11 via CH2), with 7.00 to 8.00; and `CC[C@H](C)[C@H](NC(=O)[C@@H](NC(=O)[C@H](Cc1c[nH]c2ccccc12)NC(C)=O)[C@@H](C)O)C(=O)N[C@H]1CSSC[C@@H](C(=O)N[C@@H](Cc2c[nH]c3ccccc23)C(=O)N2CCC[C@H]2C(N)=O)NC(=O)[C@H](CC(=O)O)NC(=O)[C@H](Cc2c[nH]cn2)NC(=O)[C@H](Cc2c[nH]c3ncccc23)NC(=O)[C@H](CC(N)=O)NC(=O)[C@H](CC(N)=O)NC1=O` [compound 33, Ac-W-T-I-C(3)-N-N-(7Aza-W)-H-D-C(3)-W-P-CONH2] (Ac-WTICNN[Trp(7-aza)]HDCWP-NH2; disulfide 4-10), with 7.00 to 8.00. As for `CC[C@H](C)[C@H](NC(=O)[C@@H](NC(=O)[C@H](Cc1c[nH]c2ccccc12)NC(=O)[C@H](CCSC)NC(C)=O)[C@@H](C)O)C(=O)N[C@H]1CSSC[C@@H](C(=O)N[C@@H](Cc2c[nH]c3ccccc23)C(=O)N2CCC[C@H]2C(N)=O)NC(=O)[C@H](CC(=O)O)NC(=O)[C@H](C)NC(=O)[C@H](Cc2c[nH]c3ccccc23)NC(=O)[C@H](CC(N)=O)NC(=O)[C@H](CC(N)=O)NC1=O` [compound 36, Ac-M-W-T-I-C(3)-N-N-W-(L-Ala)-D-C(3)-W-P-CONH2] (Ac-MWTICNNWADCWP-NH2; disulfide 5-11), the pKd was 7.00 to 8.00. Under `CC[C@H](C)[C@H](NC(=O)[C@@H](NC(=O)[C@H](Cc1c[nH]c2ccccc12)NC(=O)[C@H](CCSC)NC(C)=O)[C@@H](C)O)C(=O)N[C@H]1CSSC[C@@H](C(=O)N[C@@H](Cc2c[nH]c3ccccc23)C(=O)N2CCC[C@H]2C(N)=O)NC(=O)[C@H](C)NC(=O)[C@H](Cc2cnc[nH]2)NC(=O)[C@H](Cc2c[nH]c3ccccc23)NC(=O)[C@H](CC(N)=O)NC(=O)[C@H](CC(N)=O)NC1=O` [compound 37, Ac-M-W-T-I-C(3)-N-N-W-H-(L-Ala)-C(3)-W-P-CONH2] (Ac-MWTICNNWHACWP-NH2; disulfide 5-11) stands 7.00 to 8.00; under `CC[C@H](C)[C@H](NC(=O)[C@@H](NC(=O)[C@H](Cc1c[nH]c2ccccc12)NC(=O)[C@H](CCSC)NC(C)=O)[C@@H](C)O)C(=O)N[C@H]1CSSC[C@@H](C(=O)N[C@@H](Cc2c[nH]c3ccccc23)C(=O)N2CCC[C@H]2C(N)=O)NC(=O)[C@H](CC(=O)O)NC(=O)[C@H](Cc2cnc[nH]2)NC(=O)[C@H](Cc2c[nH]c3ccccc23)NC(=O)[C@H](C)NC(=O)[C@H](CC(N)=O)NC1=O` [compound 38, Ac-M-W-T-I-C(3)-N-(L-Ala)-W-H-D-C(3)-W-P-CONH2] (Ac-MWTICNAWHDCWP-NH2; disulfide 5-11), 7.00 to 8.00; under `CC[C@H](C)[C@H](NC(=O)[C@@H](NC(=O)[C@H](Cc1c[nH]c2ccccc12)NC(=O)[C@H](CCSC)NC(C)=O)[C@@H](C)O)C(=O)N[C@H]1CSSC[C@@H](C(=O)N[C@@H](Cc2c[nH]c3ccccc23)C(=O)N2CCC[C@H]2C(N)=O)NC(=O)[C@H](CC(=O)O)NC(=O)[C@H](Cc2cnc[nH]2)NC(=O)[C@H](Cc2c[nH]c3ccccc23)NC(=O)[C@@H](C)NC(=O)[C@H](CC(N)=O)NC1=O` [compound 39, Ac-M-W-T-I-C(3)-N-(D-Ala)-W-H-D-C(3)-W-P-CONH2] (Ac-MWTICN[dA]WHDCWP-NH2; disulfide 5-11), 7.00 to 8.00. Under `CC[C@H](C)[C@H](NC(=O)[C@@H](NC(=O)[C@H](Cc1cn(C)c2ccccc12)NC(=O)[C@H](CCSC)NC(C)=O)[C@@H](C)O)C(=O)N[C@H]1CSSC[C@@H](C(=O)N[C@@H](Cc2c[nH]c3ccccc23)C(=O)N2CCC[C@H]2C(N)=O)NC(=O)[C@H](CC(=O)O)NC(=O)[C@H](Cc2cnc[nH]2)NC(=O)[C@H](Cc2c[nH]c3ccccc23)NC(=O)[C@H](CC(N)=O)NC(=O)[C@H](CC(N)=O)NC1=O` [compound 41, Ac-M-(1Me-W)-T-I-C(3)-N-N-W-H-D-C(3)-W-P-CONH2] (Ac-M[Trp(1-Me)]TICNNWHDCWP-NH2; disulfide 5-11) stands 7.00 to 8.00; under `CC[C@H](C)[C@H](NC(=O)[C@@H](NC(=O)[C@H](Cc1c[nH]c2ccccc12)NC(=O)[C@H](CCSC)NC(C)=O)[C@@H](C)O)C(=O)N[C@H]1CSSC[C@@H](C(=O)N[C@@H](Cc2c[nH]c3ccccc23)C(=O)N2CCC[C@H]2C(N)=O)NC(=O)[C@H](CC(=O)O)NC(=O)[C@H](Cc2cnc[nH]2)NC(=O)[C@H](Cc2cn(C)c3ccccc23)NC(=O)[C@H](CC(N)=O)NC(=O)[C@H](CC(N)=O)NC1=O` [compound 42, Ac-M-W-T-I-C(3)-N-N-(1Me-W)-H-D-C(3)-W-P-CONH2] (Ac-MWTICNN[Trp(1-Me)]HDCWP-NH2; disulfide 5-11), 7.00 to 8.00.
